Patent US9420813B2, “Sweetener” (AJINOMOTO CO., INC., priority 2007, dated 2016)
*1 amine or outer side, *2 acyl side, *3 side chain or, on linkers, in order; H or OH if unused. Where no end group is shown, it is not given here. [ ]: non-standard residue; d: D form. γGlu = O=C(O)[C@H](CCC(=O)[*:2])N[*:1]

What was measured:
[1] = Quantitative sensory evaluation, improvement of body taste and bitterness of combined high-intensity sweeteners (Examples 2 and 4); set-up: species or system human; conditions: for Bitterness: control 0, <0 improved; for Bitterness / Body taste: n=12; for Body taste: control 0, >0 improved; for improvement of the body taste (conclusion in words): combined sweetener solutions, Tables 9 to 12 and 16 to 19
Method: The quantitative sensory evaluation test was performed as follows. As for a combination standard solution of each sweeteners, the following compounds were used. The following standard solutions have been adjusted so they each have almost the same degree of sweetness.
ii) APM (0.02 g/dl)+Ace-K (0.005 g/dl) [APM:Ace-K=8:2 as a ratio of degrees of sweetness]
iii) Sucralose (0.0058 g/dl)+Ace-K (0.0075 g/dl) [sucralose:Ace-K=7:3 as a ratio of degrees of sweetness]
iv) APM (0.0125 g/dl)+sucralose (0.0042 g/dl) [APM:sucralose=1:1 as a ratio of degrees of sweetness]
v) APM (0.0125 g/dl)+sucralose (0.0021 g/dl)+Ace-K (0.0063 g/dl) [APM:sucralose:Ace-K=2:1:1 as a ratio of degrees of sweetness]
To distilled water containing each of the sweeteners, γ-Glu-Cys-Gly (glutathione), γ-Glu-Val-Gly or γ-Glu-Abu-Gly was added and mixed at concentrations of 0.0001 to 1 g/dl, and then the degree of the improvement of the body taste and the improvement of the bitterness on the sweet taste was measured. The addition effect of the peptides on each of the high-intensity sweeteners was evaluated with reference to sucrose.
When a mixture is more acidic than the standard control solution, the pH of the mixture was adjusted with NaOH to achieve a range of pH±0.2 with respect to the pH of the standard solution before use.
The sensory evaluation for the improvement of the body taste was performed with n=12 on the basis of the following criteria: a control (obtained by adding distilled water only and without adding glutathione and/or the peptide) was defined as 0, and by using the control as a standard, the follow were defined: weak: −2 points; slightly weak: −1 point; slightly strong: 1 point, and strong: 2 points. A higher score than 0 means that the sample has a body taste-improving effect.
(§1) Alternatively, the sensory evaluation for the improvement of the bitterness was performed with n=12 on the basis of the following criteria: a control (obtained by adding distilled water only and without adding glutathione and/or the peptide) was defined as 0, and by using the control as a standard, the following were defined: weak: −2 points; slightly weak: −1 point; slightly strong: 1 point, and strong: 2 points. A lower score than 0 means that the sample improves the bitterness.
The quantitative sensory evaluation test was performed as follows. As for combination standard solution of each sweeteners, the following compound was used. The following standard solutions have been adjusted so they each have almost the same degree of sweetness.
To distilled water containing each sweetener mentioned above, γ-Glu-Val-Gly or cinacalcet was added and mixed at concentrations of 0.0001 to 1 g/dl, and then each degree of the improvement of the body taste and the improvement of the bitterness on the sweet taste was measured. The addition effect of the sample on each of the high intensity sweeteners was evaluated with reference to sucrose.
(§2) When a mixture is more acidic than the standard control solution, the pH of the sample was adjusted with NaOH to achieve a range of pH±0.2 with respect to the pH of the standard solution before use.
The sensory evaluation for the improvement of the body taste was performed with n=12 on the basis of the following criteria: a control (obtained with adding distilled water only and without adding the sample) was defined as 0, and by using the control as a standard, the following were defined: weak: −2 points; slightly weak: −1 point; slightly strong: 1 point, and strong: 2 points. A higher score than 0 means that the sample improves the body taste.
as §1, with “(obtained with” for “(obtained by”, “adding” for “adding glutathione and/or”, “the sample)” for “the peptide)”, “points. […]” for “points. A lower score than 0 means that the sample improves the bitterness.”

[2] = Quantitative sensory evaluation, body taste and bitterness in drinkable yogurt containing high intensity sweetener (Example 5); set-up: species or system human; conditions: for Bitterness: control 0, <0 improved; for Bitterness / Body taste: n=12; for Body taste: control 0, >0 improved; for improvement of the body taste (conclusion in words): drinkable yogurt with APM, Table 20
Method: The quantitative sensory evaluation test was performed as follows. As for a drinkable yogurt standard solution, the following compounds were used. The following standard solutions have been adjusted so they each have almost the same degree of sweetness.
To a drinkable yogurt containing each of the sweeteners, γ-Glu-Val-Gly or cinacalcet was added and mixed at concentrations 0.0001 to 1 g/dl, and then each degree of the improvement of the body taste and the improvement of the bitterness on the sweet taste was measured.
as §2
The sensory evaluation for the improvement of the body taste was performed with n=12 on the basis of the following criteria: a control (obtained with adding distilled water only and without adding the sample) was defined as 0, and by using the control as a standard, the following were defined: weak: −2 points; slightly weak: −1 point; slightly strong: 1 point, and strong: 2 points. A higher score than 0 means that the sample has a body taste-improving effect.
as §1, with “On the other hand, the” for “Alternatively, the”, “(obtained with” for “(obtained by”, “adding” for “adding glutathione and/or”, “the sample)” for “the peptide)”

[3] = Quantitative sensory evaluation test, intensity of kokumi-imparting activity; set-up: key to Kokumi intensity, initial and middle taste / Kokumi intensity, aftertaste / Taste profile: *: Unmeasurable: kokumi-imparting activity is too strong to measure by sensory evaluation
Method: The quantitative sensory evaluation test was performed as follows. […] When a sample is acidic when dissolved, the pH was adjusted with NaOH to pH 6.8 to 7.2 before use. Because it is known that glutathione can impart kokumi to a food, glutathione was used as a comparative control. The test was performed with n=3 based on the following sensory evaluation scores: control was given 0 points, glutathione addition was given 3 points. […] It should be noted that the term “initial and middle taste” is a collective term of the initial taste and middle taste.
The quantitative sensory evaluation test was performed as follows. […] When a sample is acidic when dissolved, the pH of the sample was adjusted with NaOH to pH 6.8 to 7.2 before use. The test was performed with n=5 based on the following sensory evaluation scores: control was given 0 point and glutathione addition was given 3 points.
The quantitative sensory evaluation test was performed as follows. […] As for a sample which is acidic when the sample is dissolved, pH of the sample was adjusted with NaOH to pH 6.8 to 7.2 before use. The test was performed with n=12 based on the following sensory evaluation scores: control: 0 point and glutathione addition: 3 points.

[4] = APM 0.0125 + sucralose 0.0021 + Ace-K 0.0063 g/dl (2:1:1), sample 0.0001 g/dl
[5] = APM 0.0125 + sucralose 0.0021 + Ace-K 0.0063 g/dl (2:1:1), sample 0.001 g/dl
[6] = APM 0.0125 g/dl + sucralose 0.0042 g/dl (1:1), sample 0.0001 g/dl
[7] = APM 0.0125 g/dl + sucralose 0.0042 g/dl (1:1), sample 0.001 g/dl
[8] = APM 0.02 g/dl + Ace-K 0.005 g/dl (8:2), sample 0.0001 g/dl
[9] = APM 0.02 g/dl + Ace-K 0.005 g/dl (8:2), sample 0.001 g/dl
[10] = APM:Ace-K = 8:2, sample 0.0001 g/dl
[11] = sucralose 0.0058 g/dl + Ace-K 0.0075 g/dl (7:3), sample 0.0001 g/dl
[12] = sucralose 0.0058 g/dl + Ace-K 0.0075 g/dl (7:3), sample 0.001 g/dl
[13] = drinkable yogurt with APM 0.025 g/dl, sample 0.0001 g/dl
[14] = drinkable yogurt with APM 0.025 g/dl, sample 0.001 g/dl
[15] = sample 0.01 g/dl, control 0, glutathione 3 points, n=5
[16] = sample 0.01 g/dl, control 0, glutathione 3 points, n=12

Molecule	Bitterness [1, 4]	Body taste [1, 4]	Bitterness [1, 5]	Body taste [1, 5]	Bitterness [1, 6]	Body taste [1, 6]	Bitterness [1, 7]	Body taste [1, 7]	Bitterness [1, 8]	Body taste [1, 8]	Bitterness [1, 9]	Body taste [1, 9]	Taste profile [1, 10]	improvement of the body taste (conclusion in words) [1]	Bitterness [1, 11]	Body taste [1, 11]	Bitterness [1, 12]	Body taste [1, 12]	Bitterness [2, 13]	Body taste [2, 13]	other results
C[C@@H](NCCCc1cccc(C(F)(F)F)c1)c1cccc2ccccc12 [Cinacalcet, (R)—N-(3-(3-(trifluoromethyl)phenyl)propyl)-1-(1-naphthyl)ethylamine, reference compound]	−0.2 points	0.5 points	−0.4 points	1.1 points	−0.2 points	0.5 points	−0.2 points	1.1 points	−0.1 points	0.5 points	−0.3 points	1.1 points	Sweet taste with growth is enhanced in middle	improves the body taste at almost the same concentration	−0.1 points	0.8 points	−0.3 points	1.5 points	−0.2 points	0.5 points	Taste profile ([1]; APM:Ace-K = 8:2, sample 0.001 g/dl): Sweet taste with growth is enhanced in middle; Taste profile ([1]; APM:sucralose:Ace-K = 2:1:1, sample 0.0001 g/dl): Harmony and richness are present in middle; Taste profile ([1]; APM:sucralose:Ace-K = 2:1:1, sample 0.001 g/dl): Harmony and richness are present in middle; Bitterness [2, 14]: −0.1 points; Body taste [2, 14]: 1.6 points; improvement of the body taste (conclusion in words) [2]: improves the body taste at almost the same concentration
[γGlu]-Val-Gly	−0.3 points	0.6 points	−0.7 points	1.3 points	−0.2 points	0.6 points	−0.4 points	1.3 points	−0.3 points	0.6 points	−0.7 points	1.3 points	Sweet taste with growth is enhanced in middle	improves the body taste at almost the same concentration	−0.3 points	0.7 points	−0.7 points	1.3 points	−0.2 points	0.5 points	Kokumi intensity, aftertaste [3, 15]: 3.0 points; Kokumi intensity, initial and middle taste [3, 15]: 3.0 points; Kokumi intensity, aftertaste [3, 16]: 3.0 points; Kokumi intensity, initial and middle taste [3, 16]: 3.0 points; Kokumi intensity, aftertaste ([3]; sample 0.1 g/dl, n=5, symbol): *; Kokumi intensity, initial and middle taste ([3]; sample 0.1 g/dl, n=5, symbol): *; Taste profile ([3]; sample 0.1 g/dl, n=5, symbol): *; Taste profile [2, 14]: Growth is present in middle taste. Sweet taste; Bitterness [2, 14]: −0.5 points; Body taste [2, 14]: 1.4 points; improvement of the body taste (conclusion in words) [2]: improves the body taste at almost the same concentration
